Experimental data from PubChem BioAssay (NCI).
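In this assay, cells in 96-well plates receive the compound at five concentrations for 48 hours. Endpoints are linearly interpolated between the surrounding concentrations. Here, GI50 denotes the concentration required for 50% inhibition of growth. Definition used: TGI = concentration required for complete inhibition of growth.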

Tests used:
Experiment in all cases: NCI tumour cell line growth inhibition, 48 h
HCT-116 colon = tested on: HCT-116 colon
HCC-2998 colon = tested on: HCC-2998 colon
MOLT-4 leukemia = tested on: MOLT-4 leukemia
HS 578T breast = tested on: HS 578T breast
IGROV1 ovarian = tested on: IGROV1 ovarian
UACC-62 melanoma = tested on: UACC-62 melanoma
EKVX NSCLC = tested on: EKVX NSCLC
UO-31 renal = tested on: UO-31 renal
OVCAR-3 ovarian = tested on: OVCAR-3 ovarian
CAKI-1 renal = tested on: CAKI-1 renal
HOP-92 NSCLC = tested on: HOP-92 NSCLC
NCI-H522 lung = tested on: NCI-H522 lung
PC-3 prostate = tested on: PC-3 prostate
A549 NSCLC = tested on: A549 NSCLC
OVCAR-8 ovarian = tested on: OVCAR-8 ovarian
COLO 205 colon = tested on: COLO 205 colon
CCRF-CEM leukemia = tested on: CCRF-CEM leukemia
SF-295 CNS = tested on: SF-295 CNS
MDA-MB-468 breast = tested on: MDA-MB-468 breast
M14 melanoma = tested on: M14 melanoma
OVCAR-4 ovarian = tested on: OVCAR-4 ovarian
SW-620 colon = tested on: SW-620 colon
SNB-75 CNS = tested on: SNB-75 CNS
KM12 colon = tested on: KM12 colon
OVCAR-5 ovarian = tested on: OVCAR-5 ovarian
786-0 renal = tested on: 786-0 renal
SK-MEL-5 melanoma = tested on: SK-MEL-5 melanoma
DU-145 prostate = tested on: DU-145 prostate
ACHN renal = tested on: ACHN renal
HCT-15 colon = tested on: HCT-15 colon
HOP-62 NSCLC = tested on: HOP-62 NSCLC
NCI-H23 lung = tested on: NCI-H23 lung
MALME-3M melanoma = tested on: MALME-3M melanoma
K-562 leukemia = tested on: K-562 leukemia
HL-60(TB) leukemia = tested on: HL-60(TB) leukemia
SN12C renal = tested on: SN12C renal
SR leukemia = tested on: SR leukemia
MDA-MB-231 breast = tested on: MDA-MB-231 breast
MDA-MB-435 = tested on: MDA-MB-435
NCI-H460 lung = tested on: NCI-H460 lung
NCI-H226 lung = tested on: NCI-H226 lung
SF-539 CNS = tested on: SF-539 CNS
HT29 colon = tested on: HT29 colon
UACC-257 melanoma = tested on: UACC-257 melanoma
SK-MEL-28 melanoma = tested on: SK-MEL-28 melanoma
SK-MEL-2 melanoma = tested on: SK-MEL-2 melanoma
BT-549 breast = tested on: BT-549 breast
T-47D breast = tested on: T-47D breast
SNB-19 CNS = tested on: SNB-19 CNS
SK-OV-3 ovarian = tested on: SK-OV-3 ovarian
A498 renal = tested on: A498 renal
MCF7 breast = tested on: MCF7 breast
RXF 393 renal = tested on: RXF 393 renal
RPMI-8226 leukemia = tested on: RPMI-8226 leukemia
LOX IMVI melanoma = tested on: LOX IMVI melanoma
TK-10 renal = tested on: TK-10 renal
SF-268 CNS = tested on: SF-268 CNS
U251 CNS = tested on: U251 CNS

In the case of COc1cc2cc(C(=O)N3C[C@@H](CCl)c4c3cc(OC(=O)N(CCC(=O)N3CCN(C)CC3)C3CCCCC3)c3ccccc43)[nH]c2c(OC)c1OC, the GI50 (HCT-116 colon) is reported as 1.5 µM, the TGI (HCT-116 colon) is reported as 9.94 µM and the GI50 (HCC-2998 colon) is reported as 1.52 µM. The TGI (HCC-2998 colon) was 3.48 µM, the GI50 (MOLT-4 leukemia) was 0.594 µM and the TGI (MOLT-4 leukemia) was 10.1 µM. It also gave a GI50 (HS 578T breast) of 2.42 µM, a TGI (HS 578T breast) of 7.11 µM and a GI50 (IGROV1 ovarian) of 2.31 µM. For the same compound, the TGI (IGROV1 ovarian) was 7.76 µM, the GI50 (UACC-62 melanoma) was 1.53 µM and the TGI (UACC-62 melanoma) was 3.28 µM. For the same compound, the GI50 (EKVX NSCLC) was 1.95 µM, the TGI (EKVX NSCLC) was 5.89 µM and the GI50 (UO-31 renal) was 1.88 µM. For the same compound, the TGI (UO-31 renal) was 6.34 µM, the GI50 (OVCAR-3 ovarian) was 2.1 µM and the TGI (OVCAR-3 ovarian) was 4.67 µM. It also gave a GI50 (CAKI-1 renal) of 1.49 µM, a TGI (CAKI-1 renal) of 7.65 µM and a GI50 (HOP-92 NSCLC) of 2.5 µM. It also gave a TGI (HOP-92 NSCLC) of 9.46 µM, a GI50 (NCI-H522 lung) of 1.7 µM and a TGI (NCI-H522 lung) of 4.53 µM. It also gave a GI50 (PC-3 prostate) of 3.14 µM, a TGI (PC-3 prostate) of over 100 µM and a GI50 (A549 NSCLC) of 1.99 µM. It also gave a TGI (A549 NSCLC) of over 100 µM, a GI50 (OVCAR-8 ovarian) of 1.66 µM and a TGI (OVCAR-8 ovarian) of 10.1 µM. It also gave a GI50 (COLO 205 colon) of 1.37 µM, a TGI (COLO 205 colon) of 2.8 µM and a GI50 (CCRF-CEM leukemia) of 0.993 µM. For the same compound, the TGI (CCRF-CEM leukemia) was 12.1 µM, the GI50 (SF-295 CNS) was 1.55 µM and the TGI (SF-295 CNS) was 6.79 µM. For the same compound, the GI50 (MDA-MB-468 breast) was 0.688 µM, the TGI (MDA-MB-468 breast) was 2.29 µM and the GI50 (M14 melanoma) was 1.52 µM. For the same compound, the TGI (M14 melanoma) was 4.24 µM, the GI50 (OVCAR-4 ovarian) was 2.34 µM and the TGI (OVCAR-4 ovarian) was 6.35 µM. For the same compound, the GI50 (SW-620 colon) was 1.89 µM, the TGI (SW-620 colon) was 12.6 µM and the GI50 (SNB-75 CNS) was 1.29 µM. It also gave a TGI (SNB-75 CNS) of 3.7 µM, a GI50 (KM12 colon) of 2.07 µM and a TGI (KM12 colon) of 7.25 µM. It also gave a GI50 (OVCAR-5 ovarian) of 5.11 µM, a TGI (OVCAR-5 ovarian) of 27.9 µM and a GI50 (786-0 renal) of 1.73 µM. For the same compound, the TGI (786-0 renal) was 10.1 µM, the GI50 (SK-MEL-5 melanoma) was 1.64 µM and the TGI (SK-MEL-5 melanoma) was 3.22 µM. The GI50 (DU-145 prostate) was 0.456 µM, the TGI (DU-145 prostate) was 4.63 µM and the GI50 (ACHN renal) was 0.493 µM. The TGI (ACHN renal) was 10.7 µM, the GI50 (HCT-15 colon) was 1.73 µM and the TGI (HCT-15 colon) was 6.71 µM. For the same compound, the GI50 (HOP-62 NSCLC) was 0.594 µM, the TGI (HOP-62 NSCLC) was 9.11 µM and the GI50 (NCI-H23 lung) was 0.471 µM. It also gave a TGI (NCI-H23 lung) of 1.93 µM, a GI50 (MALME-3M melanoma) of 1.57 µM and a TGI (MALME-3M melanoma) of 3.05 µM. It also gave a GI50 (K-562 leukemia) of 0.677 µM, a TGI (K-562 leukemia) of 20.3 µM and a GI50 (HL-60(TB) leukemia) of 0.751 µM. It also gave a TGI (HL-60(TB) leukemia) of 3.73 µM, a GI50 (SN12C renal) of 1.2 µM and a TGI (SN12C renal) of 10.2 µM. For the same compound, the GI50 (SR leukemia) was 0.276 µM, the TGI (SR leukemia) was 1.93 µM and the GI50 (MDA-MB-231 breast) was 3.07 µM. For the same compound, the TGI (MDA-MB-231 breast) was 8.63 µM, the GI50 (MDA-MB-435) was 1.78 µM and the TGI (MDA-MB-435) was 3.65 µM. It also gave a GI50 (NCI-H460 lung) of 0.512 µM, a TGI (NCI-H460 lung) of 10.7 µM and a GI50 (NCI-H226 lung) of 1.44 µM. It also gave a TGI (NCI-H226 lung) of 4.21 µM, a GI50 (SF-539 CNS) of 1.31 µM and a TGI (SF-539 CNS) of 3.87 µM. It also gave a GI50 (HT29 colon) of 1.52 µM, a TGI (HT29 colon) of 4.24 µM and a GI50 (UACC-257 melanoma) of 1.99 µM. For the same compound, the TGI (UACC-257 melanoma) was 4.63 µM, the GI50 (SK-MEL-28 melanoma) was 3.58 µM and the TGI (SK-MEL-28 melanoma) was 8.96 µM. It also gave a GI50 (SK-MEL-2 melanoma) of 1.98 µM, a TGI (SK-MEL-2 melanoma) of 3.5 µM and a GI50 (BT-549 breast) of 1.59 µM. It also gave a TGI (BT-549 breast) of 4.22 µM, a GI50 (T-47D breast) of 1.9 µM and a TGI (T-47D breast) of 6.63 µM. For the same compound, the GI50 (SNB-19 CNS) was 2.22 µM, the TGI (SNB-19 CNS) was 20 µM and the GI50 (SK-OV-3 ovarian) was 2.15 µM. It also gave a TGI (SK-OV-3 ovarian) of 9.35 µM, a GI50 (A498 renal) of 2.77 µM and a TGI (A498 renal) of 5.27 µM. The GI50 (MCF7 breast) was 0.318 µM, the TGI (MCF7 breast) was 2.63 µM and the GI50 (RXF 393 renal) was 1.06 µM. For the same compound, the TGI (RXF 393 renal) was 2.46 µM, the GI50 (RPMI-8226 leukemia) was 1.47 µM and the TGI (RPMI-8226 leukemia) was 5.08 µM. The GI50 (LOX IMVI melanoma) was 1.1 µM, the TGI (LOX IMVI melanoma) was 2.76 µM and the GI50 (TK-10 renal) was 2.85 µM. It also gave a TGI (TK-10 renal) of 8.53 µM, a GI50 (SF-268 CNS) of 1.54 µM and a TGI (SF-268 CNS) of 7.45 µM. For the same compound, the GI50 (U251 CNS) was 1.51 µM and the TGI (U251 CNS) was 4.46 µM.
